These results are taken from US20240269128A1, “COMPOUNDS FOR TREATING OR PREVENTING ALZHEIMER'S DISEASE” (THE UNITED STATES OF AMERICA, as represented by the …, priority 2021, published 2024).

In one assay the test system is H4-hAPP cells. Nature of the assay: Aβ secretion assay. It is filed as cell-based, human. As to the method: Aβ Secretion: H4-hAPP cells were cultivated in Opti-MEM supplemented with 10% FCS, 1% penicillin/streptomycin 200 μg/mL Hygromycin B and 2.5 μg/mL Blasticidin S. H4-hAPP cells were seeded into 96 well plates (2×10^4 cells per well). On the next day, cells in 96 well plates were treated with compounds, R.I. (DAPT 400 nM) or vehicle. 24 h later, supernatants were collected for further Aβ measurements by MSD® (V-PLEX Aβ Peptide Panel 1 (6E10) Kit, K15200E, Mesoscale Discovery).
Aβ secretion: Human APP overexpressing H4-hAPP cells were cultivated in Opti-MEM supplemented with 10% FCS, 1% penicillin/streptomycin 200 μg/mL Hygromycin B and 2.5 μg/mL Blasticidin S. H4-hAPP cells were seeded into 96 well plates (2×10^4 cells per well). On the next day, cells in 96 well plates were treated HCQ (0.25 μM, 2.5 μM and 25 μM) or the reference item (DAPT 400 nM), a γ-secretase inhibitor vehicle. 24 h later, supernatants were collected for further Aβ measurements by MSD® (V-PLEX Aβ Peptide Panel 1 (6E10) Kit, K15200E, Mesoscale Discovery).
Cultivation and treatment of H4-hAPP cells: H4-hAPP cells were thawed and cultivated in Opti-MEM supplemented with 10% FCS, 1% penicillin/streptomycin 200 μg/ml Hygromycin B and 2.5 μg/ml Blasticidin S (=culture medium). H4-hAPP cells were seeded into 96 well plates (2×10^4 cells per well). On the next day, cells in 96 well plates were treated with TUDCA (100 μM (C1), 10 μM (C2), or 1.0 μM (C3)), R.I. (DAPT 400 nM) or vehicle. Alternatively, cells in 96 well plates were treated with 25 μM HCQ/0.1 μM TUDCA (C1), 2.5 μM HCQ/100 μM TUDCA (C2), and 2.5 μM HCQ/10 μM TUDCA (C3). 24 h later, supernatants were collected for further Aβ measurements by MSD. The experiment was performed in n=6 technical replicates for all groups.
Aβ38, 40, 42 measurement: Supernatants were diluted 1:10 and analyzed for human Aβ38, 40, and 42 with MSD® 96-well MULTI-SPOT® 6E10 Abeta Triplex Assay (Mesoscale Discovery, Rockville, MD). The immune assay was carried out according to the manual and plates are read on the MESO QuickPlex SQ 120 multiplexing instrument. Analyte levels were evaluated according to adequate Aβ peptide standards (MSD) as pg per mL.
Aβ Secretion: H4-hAPP cells were cultivated in Opti-MEM supplemented with 10% FCS, 1% penicillin/streptomycin, hygromycin B (200 μg/ml), and blasticidin S (2.5 μg/ml). H4-hAPP cells were seeded into 96-well plates (2×10^4 cells per well). On the next day, cells in 96-well plates were treated with compounds, reference item [400 nM N-[N-(3,5-difluorophenacetyl-1-alanyl)]-S-phenylglycine t-butyl ester (DAPT)], or vehicle. Twenty-four hours later, supernatants were collected for further Aβ measurements by MSD [V-PLEX Aβ Peptide Panel 1 (6E10) Kit, K15200E, Mesoscale Discovery].
Culture and treatment of H4-hAPP cells: H4-hAPP cells were thawed and cultivated in Opti-MEM supplemented with 10% FCS, 1% penicillin/streptomycin 200 μg/ml Hygromycin B and 2.5 μg/ml Blasticidin S (=culture medium). H4-hAPP cells were seeded into 96 well plates (2×10^4 cells per well). On the next day, cells in 96 well plates were treated with T.I., R.I. (DAPT 400 nM) or vehicle. 24 h later, supernatants were collected for further Aβ measurements by MSD. The experiment was performed in n=6 technical replicates for all groups.
Aβ38, 40, 42 measurement in H4-hAPP cells: Supernatants were diluted 1:10 and analyzed for human Aβ38, 40, and 42 with MSD® 96-well MULTI-SPOT® 6E10 Abeta Triplex Assay (Mesoscale Discovery). The immune assay was carried out according to the manual and plates were read on the MESO QuickPlex SQ 120. Analyte levels were evaluated according to adequate Aβ peptide standards (MSD) as pg per mL.

Another assay deals with STAT3 (Mus musculus, UniProt P42227). Nature of the assay: Western blot of hippocampal STAT3 and p-STAT3 after STET. Also noted: hippocampal homogenate samples across four groups; from tissue; host or cells: acute hippocampal slices from WT and APP/PS1 (APPSwe/PS1dE9) mice. As to the method: To test if the rescue of impaired late-LTP by HCQ may be through inactivation of STAT3, levels of total STAT3 and phosphorylated STAT3 (p-STAT3; Tyr705) were examined to determine whether they were reduced by HCQ treatment. Specifically, differences in STAT3 and pSTAT3 levels were tested in hippocampal homogenate samples across four groups: WT, APP/PS1, WT+50 μM HCQ, and APP/PS1+50 μM HCQ mice (5-months old). All hippocampal slices were incubated in the interphase chamber and HCQ was applied 30 minutes before and after STET. In each group, hippocampal slices were collected one hour after STET.
STAT3, sequence (P42227 whole entry): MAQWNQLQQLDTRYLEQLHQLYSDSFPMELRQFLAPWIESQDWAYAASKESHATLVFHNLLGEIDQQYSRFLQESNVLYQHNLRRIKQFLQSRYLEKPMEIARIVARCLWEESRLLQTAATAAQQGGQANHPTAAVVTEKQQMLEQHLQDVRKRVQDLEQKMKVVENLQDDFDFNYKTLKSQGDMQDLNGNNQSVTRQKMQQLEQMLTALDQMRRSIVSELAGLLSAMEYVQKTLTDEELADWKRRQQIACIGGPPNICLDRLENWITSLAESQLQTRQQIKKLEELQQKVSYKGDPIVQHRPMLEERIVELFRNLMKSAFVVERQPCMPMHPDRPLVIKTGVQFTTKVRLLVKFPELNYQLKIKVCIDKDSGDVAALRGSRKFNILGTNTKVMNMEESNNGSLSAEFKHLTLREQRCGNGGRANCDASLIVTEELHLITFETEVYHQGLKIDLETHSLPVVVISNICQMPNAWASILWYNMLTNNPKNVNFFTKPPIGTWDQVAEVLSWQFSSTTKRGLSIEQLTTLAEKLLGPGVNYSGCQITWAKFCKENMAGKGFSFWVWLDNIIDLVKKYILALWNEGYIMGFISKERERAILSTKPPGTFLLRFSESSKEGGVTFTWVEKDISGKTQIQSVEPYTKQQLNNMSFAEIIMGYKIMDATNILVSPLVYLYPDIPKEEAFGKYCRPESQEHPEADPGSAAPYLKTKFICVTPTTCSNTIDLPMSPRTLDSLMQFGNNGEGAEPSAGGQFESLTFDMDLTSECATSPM
(Immunoblotting shows a protein as a band on a membrane.)

Consider `CCN(CCO)CCCC(C)Nc1ccnc2cc(Cl)ccc12` (centres unmarked) [HCQ, hydroxychloroquine], for which the “secreted Aβ1-42” value in the assay on H4-hAPP cells (HCQ 0.25 μM, 2.5 μM and 25 μM) is given as “did not alter”. Also, the “hippocampal p-STAT3 (Tyr705)” value on STAT3 (APP/PS1+50 μM HCQ vs untreated APP/PS1) is listed as “significantly lower”. Also, at STAT3 (APP/PS1 vs APP/PS1+50 μM HCQ), the “hippocampal total STAT3” value is listed as “no significant difference”. The “hippocampal total STAT3 and p-STAT3 (Tyr705)” value on STAT3 (WT vs WT+50 μM HCQ) was “similar”.

For `C[C@H](CCC(=O)NCCS(=O)(=O)O)[C@H]1CC[C@H]2[C@@H]3[C@@H](O)C[C@@H]4C[C@H](O)CC[C@]4(C)[C@H]3CC[C@]12C` [TUDCA, tauroursodeoxycholic acid], in the assay with H4-hAPP cells (TUDCA 100, 10, 1.0 μM, 24 h), the “secretion of Aβ1-38” value is given as “lowers”, the “secretion of Aβ1-40” value is recorded as “lowers” and the “secretion of Aβ1-42” value was “lowers”. In addition, the “effect in Aβ release (H4 cells)” value in the assay with H4-hAPP cells (posterior probability of a protective effect) is recorded as “protective”.
